Experimental data from patent publication US20200270576A1, “Ex Vivo Maintenance and Expansion of Stem Cells” (priority 2017, published 2020).

Experiments:
[1] = test system: bone marrow cells; assay: TMI fluorescence (unfolded protein) in bone marrow cells from treated mice; assay type: in vivo; conditions: bone marrow cells isolated from treated mice
Procedure: FIG. 6A-D depict the validation of tetraphenylethene maleimide (TMI) as a probe to measure unfolded protein. FIG. 6A depicts that TMI is a cell permeable dye that fluoresces upon binding to cysteine thiols. The free thiol side chains of non-disulphide bonded hydrophobic cysteines are typically buried within the core of globular proteins, but can be exposed in unfolded proteins. FIG. 6B depicts that TMI fluorescence was higher in bone marrow cells after a 4 hour incubation at 42° C. as compared to 37° C. Since heat shock induces protein unfolding, this validated TMI as a means to quantify unfolded protein. FIG. 6C depicts that TMI fluorescence in bone marrow cells was increased after treatment with the proteasome inhibitor bortezomib. […] FIG. 6B-D validated that TMI can be used to quantify unfolded protein (protein quality) in hematopoietic cells.
As a complement to evaluating protein quality by assessing changes in ubiquitylated protein, a quantitative orthogonal assay to measure protein quality was developed. Tetraphenylethene maleimide (TMI) is a cell permeable dye that fluoresces upon binding to cysteine thiols. […] We adapted TMI to quantify unfolded proteins within single hematopoietic cells by flow cytometry. We validated TMI by assessing the effect of heat shock, which induces protein unfolding, on TMI fluorescence in bone marrow cells. […]

[2] = test system: Hsf1; assay: Hsf1 expression and localization by immunofluorescence in cultured HSCs; assay type: cell-based, mouse; conditions: 10 days culture; 17-AAG 5 nM, HSF1A 8 uM final concentration
From the text: FIG. 14 depicts representative immunofluorescence staining of HSCs cultured for 10 days in the presence or absence of 17-AAG or HSF1A. Addition of 17-AAG or HSF1A to culture medium increased Hsf1 accumulation in the nucleus of cultured HSCs. Hsf1-deficient HSCs and cells stained without primary antibody (Neg Con) are shown as controls.
Since Hsf1 promoted HSC maintenance and protein homeostasis in vitro (FIG. 13), we investigated whether increasing Hsf1 expression or activity would further enhance HSC maintenance. […] Hsf1 can become active as a transcription factor when it translocates to the nucleus. We thus tested whether inhibitors of HSP90 or TRiC would promote Hsf1 accumulation in the nucleus of cultured HSCs by culturing HSCs for 10 days in the presence or absence of 17-AAG (HSP90 inhibitor; 5 nM final concentration) or HSF1A (TRiC inhibitor; 8 uM final concentration), and assessed Hsf1 expression and localization by immunofluorescence.

[3] = test system: Hsf1-deficient and control HSCs; assay: Competitive transplantation of cultured wild-type and Hsf1-deficient HSCs; assay type: cell-based, mice; conditions: 12 weeks after transplantation
From the text: FIG. 17 depicts that Hsf1 is required for 17-AAG and HSF1A to enhance HSC maintenance and expansion in vitro. Donor cell engraftment 12 weeks after transplantation of 10 wild-type and Hsf1-deficient HSCs cultured for 10 days in the presence or absence of 17-AAG, HSF1A or DMSO. Cells were transplanted with 2×10^5 freshly isolated congenic bone marrow cells (n=7-9; *P<0.05, **P<0.01).
We tested whether the positive effects of 17-AAG and HSF1A on HSC maintenance/expansion in vitro were mediated by Hsf1. Purified Hsf1-deficient and control HSCs were sorted from adult bone marrow (CD45.2^+) into 96-well plates (10/well) containing HSC medium supplemented with 17-AAG, HSF1A or vehicle (DMSO). HSCs were cultured for 10 days and competitively transplanted with 2×10^5 freshly isolated congenic bone marrow cells (CD45.1^+) into irradiated mice (CD45.1^+). Recipient mice were bled monthly to assess levels of donor-derived CD45.2^+ hematopoietic cells. […] However, the positive effect of 17-AAG and HSF1A was lost with Hsf1-deficient HSCs (FIG. 17).

[4] = test system: HSCs; assay: Competitive transplantation of HSCs cultured 10 days, with serial transplantation; assay type: cell-based, murine
From the text: FIG. 16A-B depict that HSC functionality is maintained and expanded in vitro by interventions that can induce/activate Hsf1. FIG. 16A depicts donor cell engraftment 16 weeks after transplantation of 10 HSCs cultured for 10 days in the presence or absence of an HSP90 inhibitor (17-AAG) or TRiC inhibitor (HSF1A) or from 10 freshly isolated HSCs. Cells were transplanted with 2×10^5 freshly isolated congenic bone marrow cells (n=3 independent experiments with 3-5 recipients/condition/experiment). […] Addition of either 17-AAG or HSF1A increased the reconstituting potential of cultured HSCs as compared to both control cultured and freshly isolated HSCs.
To test if HSCs depend on Hsf1 for their maintenance in vitro, we conditionally deleted Hsf1 from HSCs, cultured them for 10 days and assessed their long-term multilineage reconstituting activity in competitive transplantation assays. The assay for testing HSC function is to assess their capacity to give long-term (16+ week) multilineage (B cell, T cell and myeloid cell) reconstitution of the blood system of an irradiated transplant recipient. A competitive transplantation assay provides a quantitative readout of HSC regenerative activity.
Modest declines in proteostasis impair HSC maintenance in vivo. […] This raises the possibility that increasing Hsf1 activity could promote HSC maintenance in vitro by enhancing proteostasis capacity. To test if HSP90 inhibitors or TRiC inhibitors promote HSC maintenance in vitro, purified HSCs were sorted from young adult murine bone marrow (CD45.1^+) into 96-well plates (10/well) containing our HSC medium supplemented with 17-AAG or HSF1A. HSCs were cultured for 10 days and competitively transplanted with 2×10^5 freshly isolated congenic bone marrow cells (CD45.2^+) into irradiated mice (CD45.2^+). Recipient mice were bled monthly (for 4 months) to assess levels of donor-derived CD45.1^+ hematopoietic cells. Self-renewal capacity of HSCs was assessed by serially transplanting hematopoietic cells from the primary recipients into secondary irradiated recipients (3×10^6 cells/recipient). […] Similar results are expected for other HSP90 or TRiC inhibitors.
To test if HSP90 inhibitors or TRiC inhibitors enable HSC expansion in vitro, purified HSCs were sorted from young adult bone marrow (CD45.1^+) into 96-well plates (10/well) containing HSC medium supplemented with 17-AAG or HSF1A. HSCs were cultured for 10 days and competitively transplanted with 2×10^5 freshly isolated congenic bone marrow cells (CD45.2^+) into irradiated mice (CD45.2^+). At the same time, 10 freshly isolated HSCs were transplanted with 2×10^5 freshly isolated congenic bone marrow cells into irradiated mice. Recipient mice were bled monthly (for 4 months) to assess levels of donor-derived CD45.1^+ hematopoietic cells. Self-renewal capacity of HSCs was assessed by serially transplanting hematopoietic cells (3×10^6 cells/recipient) into secondary irradiated recipients. […] Similar results are expected for other HSP90 or TRiC inhibitors.

[5] = test system: CD48-LSK HSCs/MPPs; assay: Western blot of ubiquitylated protein in cultured HSCs; assay type: cell-based, mouse; conditions: added to culture medium; HSCs 4 and 18 hours in vitro
Procedure: FIG. 10A-C depicts increased protein synthesis and reduced protein quality within HSCs in vitro. FIG. 10A depicts relative protein synthesis rates of HSCs normalized to bone marrow cells in vivo (n=6) and after 4 hours in vitro (n=5). Statistical significance was assessed with a two-tailed Student's t-test (***P<0.001). FIGS. 10B and 10C depict western blots that examined ubiquitylated protein levels in freshly isolated or cultured CD48^−LSK HSCs/MPPs. […] The accumulation of ubiquitylated protein was prevented by addition of the translation inhibitor cycloheximide (CHX) to culture medium.
The accumulation of ubiquitylated protein could be blocked by adding the translation inhibitor cycloheximide to the culture medium (FIG. 10B, 10C).

[6] = test system: primary bone marrow cells; assay: OPP incorporation (protein synthesis) by flow cytometry; assay type: cell-based, mouse; conditions: pre-treatment with translation inhibitor; primary bone marrow cells in culture
Procedure: FIG. 1A-D depict quantification of protein synthesis in hematopoietic cells. FIG. 1A depicts how 0-propargyl-puromycin (OPP) was used to quantify protein synthesis within cells. OPP is a puromycin analog with a terminal alkyne group that mimics an aminoacyl-tRNA and integrates into nascent polypeptides. Azide-alkyne cycloaddition can covalently link a fluorescently tagged azide molecule to OPP that has been incorporated into new peptides. FIG. 1B depicts that when OPP was added to cell culture medium, its incorporation in primary bone marrow cells was detected and quantified by flow cytometry. […] FIG. 1C depicts OPP incorporation in CD150^+CD48^−Lineage^−Sca1^+ckit^+ (CD150^+CD48^−LSK) HSCs and unfractionated bone marrow cells one hour after administration in vivo. FIG. 1D depicts OPP incorporation (protein synthesis rates) in HSCs, multipotent progenitors (MPP), common myeloid progenitors (CMP), granulocyte macrophage progenitors (GMP), granulocytes (GR) megakaryocyte erythroid progenitors (MEP), CD71^+Ter119^+ erythroid progenitors (E), pro-B, pre-B, IgM^+ B cells (IgM), CD3^+ T cells (T), and unfractionated bone marrow cells (BM). […] Statistical significance relative to HSCs was assessed using a repeated-measures one way ANOVA followed by Dunnett's test (n=9; **P<0.01, ***P<0.001).

Structure (SMILES): CC(C)C[C@H](NC(=O)[C@H](Cc1ccccc1)NC(=O)c1cnccn1)B(O)O [Bortezomib]
- increase in TMI fluorescence as compared to cells from vehicle treated controls [1]: ~30%

Structure (SMILES): CCc1ccc(S(=O)(=O)Nc2cc(-c3cccs3)nn2-c2ccccc2)cc1 [HSF1A]
- Hsf1 abundance in the nucleus of cultured HSCs [2]: increase Hsf1 abundance in the nucleus
- donor cell reconstitution vs controls (DMSO), control HSCs ([3]; 10 HSCs cultured 10 days): higher levels of donor cell reconstitution as compared to controls
- positive effect on donor cell reconstitution with Hsf1-deficient HSCs ([3]; Hsf1-deficient HSCs cultured 10 days): lost
- donor cell reconstitution vs recipients of freshly isolated HSCs ([4]; 10 HSCs cultured 10 days vs 10 freshly isolated HSCs): higher levels of donor cell reconstitution as compared to recipients of freshly isolated HSCs
- donor cell reconstitution in primary recipients vs HSCs cultured without agent ([4]; 10 HSCs cultured 10 days, with 2x10^5 congenic bone marrow cells, 16 weeks): significantly higher levels of donor cell reconstitution as compared to controls
- fraction of recipients with long-term multilineage reconstitution vs HSCs cultured without agent ([4]; primary and secondary transplants, 16 week, >0.5% B-, T-, myeloid cells): greater fraction
- fraction of recipients with long-term multilineage reconstitution vs freshly isolated HSCs ([4]; secondary transplants): significantly greater fraction
- donor cell reconstitution in secondary recipients vs HSCs cultured without agent ([4]; serial transplant, 3x10^6 cells/recipient): even more pronounced

Structure (SMILES): C[C@@H]1C[C@@H]([C@H](O)CC2CC(=O)NC(=O)C2)C(=O)[C@@H](C)C1 [cycloheximide]
- accumulation of ubiquitylated protein [5]: blocked
- incorporation of OPP (new protein synthesis) [6]: inhibited
